Measurements published in US20260146046A1, “BICYCLIC FERROPORTIN INHIBITORS” (Vifor (International) AG, priority 2022, published 2026).
Counter-ions that a name gives are not always drawn.

Target: T1, ferroportin (Fpn) (Mus musculus, UniProt Q9JHI9)
T1 construct: endogenous in cells; host or cells: J774 mouse macrophage cell line, induced with Fe(III)NTA
T1 sequence (Q9JHI9 1-570): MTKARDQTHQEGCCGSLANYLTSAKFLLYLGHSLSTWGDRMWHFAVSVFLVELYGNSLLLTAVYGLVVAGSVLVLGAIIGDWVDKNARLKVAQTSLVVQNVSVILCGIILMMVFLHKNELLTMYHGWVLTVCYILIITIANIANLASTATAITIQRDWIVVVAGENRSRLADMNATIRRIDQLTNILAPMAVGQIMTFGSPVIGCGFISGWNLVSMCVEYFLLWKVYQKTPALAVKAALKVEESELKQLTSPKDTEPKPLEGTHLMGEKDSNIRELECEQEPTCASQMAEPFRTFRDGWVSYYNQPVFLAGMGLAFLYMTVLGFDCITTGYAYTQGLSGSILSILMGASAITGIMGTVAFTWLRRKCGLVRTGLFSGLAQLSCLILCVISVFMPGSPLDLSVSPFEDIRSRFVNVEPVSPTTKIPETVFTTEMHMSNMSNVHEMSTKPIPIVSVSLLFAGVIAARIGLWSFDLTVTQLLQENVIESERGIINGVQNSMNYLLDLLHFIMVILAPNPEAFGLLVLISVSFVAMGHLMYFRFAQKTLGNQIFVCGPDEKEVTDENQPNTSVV
Test: Hepcidin Internalization Assay (J774)
Format: cell-based
Conditions: J774 cells, 25 nM TMR-hepcidin, 2 hours; average of multiple measurements; read-out: Average (AVE) IC50 of Fpn inhibitors in the hepcidin internalization assay
Excerpt: This cellular assay allows quantification of the binding of hepcidin to ferroportin (Fpn) through microscopic detection of internalization of a fluorescently labeled hepcidin into J774 cells. […] Binding of hepcidin to Fpn triggers internalization and degradation of both hepcidin and Fpn. […] Therefore, microscopic detection of cell-associated TMR fluorescence is a measure of hepcidin binding to Fpn and internalization of hepcidin and Fpn. If TMR-hepcidin is prevented from binding to Fpn, cellular TMR fluorescence remains low (Durrenberger et al, 2013). The effect of small molecular weight Fpn inhibitor compounds in this assay was evaluated in vitro as described below. […] Cat. 655090) and grown at 37° C. with 5% CO2. After overnight incubation, cells were washed 3 times with pre-warmed DMEM w/o phenol red, 30 μl/well of DMEM w/o phenol red was added after the final wash and 10 μl/well of dilution series of test compounds were added in triplicates. […] Cells were incubated in a total volume of 50 μl at 37° C. with 5% CO2 for 2 hours, then Hoechst 33342 dye was added to a final concentration of 0.5 μg/ml to stain nuclei and further incubated for 10 min. at 37° C. with 5% CO2. […] After removal of the paraformaldehyde solution, cells were washed 3 times with PBS leaving 100 μl per well and the plates were sealed with foil plate seal. […] The acquired image data was analysed with the […] analysis software. […] IC50 values were calculated with the Sum(Mean) raw data using “log(inhibitor) vs. response” curve fitting of Prism 5 software (GraphPad Software Inc., version 5.02). For each data set the fit of the “log(inhibitor) vs. response (three parameters)” model was compared to the fit of the “log(inhibitor) vs. response-Variable slope (four parameters)” model and the IC50 data of the preferred model was used.

IC50 [nM] | Structure (SMILES)
31 | CCn1c(CCNCCc2nc3c(NCc4ncccc4F)nccc3o2)nc2cc3c(cc21)OCCO3 [Example Compound No. 21, 2-(2-((2-(1-ethyl-6,7-dihydro-1H-[1,4]dioxino[2′,3′:4,5]benzo[1,2-d]imidazol-2-yl)ethyl)amino)ethyl)-N-((3-fluoropyridin-2-yl)methyl)oxazolo[4,5-c]pyridin-4-amine formate]
40 | Cn1c(CCNCCc2nc3c(NCc4ncccc4F)nccc3o2)nc2ccccc21 [Example Compound No. 22, N-((3-fluoropyridin-2-yl)methyl)-2-(2-((2-(1-methyl-1H-benzo[d]imidazol-2-yl)ethyl)amino)ethyl)oxazolo[4,5-c]pyridin-4-amine formate]
18 | Fc1cccnc1CNc1nccc2oc(CCNCCc3nc4cc5c(cc4n3-c3ccccc3)OCCO5)nc12 [Example Compound No. 23, N-((3-fluoropyridin-2-yl)methyl)-2-(2-((2-(1-phenyl-6,7-dihydro-1H-[1,4]dioxino[2′,3′:4,5]benzo[1,2-d]imidazol-2-yl)ethyl)amino)ethyl)oxazolo[4,5-c]pyridin-4-amine formate]
